The target of the experiment is T1, mGlu3 receptor (Homo sapiens, UniProt Q14832).
T1 construct: gene GRM3; recombinant receptor stably expressed in HEK293 cells
Briefly: FLIPR Ca2+ mobilization, antagonist mode at glutamate EC80. The experiment is classed as cell-based. The text has this:
FLIPR Ca2+ mobilization, antagonist mode [NT]
In general terms: Calcium assays in cells follow changes in intracellular calcium, usually with a dye or a luminescent sensor.

Results on 1 substance are retold here after PMC4619332, “Targeting type-2 metabotropic glutamate receptors to protect vulnerable hippocampal neurons against ischemic damage” (Molecular Brain, 2015).

What is called pIC50 is −log10 of the IC50, conventionally taken in molar units. The low end stands for a high IC50, the high end for a low IC50.

pIC50: −log10 of the molar value.

T1 sequence (Q14832 23-879): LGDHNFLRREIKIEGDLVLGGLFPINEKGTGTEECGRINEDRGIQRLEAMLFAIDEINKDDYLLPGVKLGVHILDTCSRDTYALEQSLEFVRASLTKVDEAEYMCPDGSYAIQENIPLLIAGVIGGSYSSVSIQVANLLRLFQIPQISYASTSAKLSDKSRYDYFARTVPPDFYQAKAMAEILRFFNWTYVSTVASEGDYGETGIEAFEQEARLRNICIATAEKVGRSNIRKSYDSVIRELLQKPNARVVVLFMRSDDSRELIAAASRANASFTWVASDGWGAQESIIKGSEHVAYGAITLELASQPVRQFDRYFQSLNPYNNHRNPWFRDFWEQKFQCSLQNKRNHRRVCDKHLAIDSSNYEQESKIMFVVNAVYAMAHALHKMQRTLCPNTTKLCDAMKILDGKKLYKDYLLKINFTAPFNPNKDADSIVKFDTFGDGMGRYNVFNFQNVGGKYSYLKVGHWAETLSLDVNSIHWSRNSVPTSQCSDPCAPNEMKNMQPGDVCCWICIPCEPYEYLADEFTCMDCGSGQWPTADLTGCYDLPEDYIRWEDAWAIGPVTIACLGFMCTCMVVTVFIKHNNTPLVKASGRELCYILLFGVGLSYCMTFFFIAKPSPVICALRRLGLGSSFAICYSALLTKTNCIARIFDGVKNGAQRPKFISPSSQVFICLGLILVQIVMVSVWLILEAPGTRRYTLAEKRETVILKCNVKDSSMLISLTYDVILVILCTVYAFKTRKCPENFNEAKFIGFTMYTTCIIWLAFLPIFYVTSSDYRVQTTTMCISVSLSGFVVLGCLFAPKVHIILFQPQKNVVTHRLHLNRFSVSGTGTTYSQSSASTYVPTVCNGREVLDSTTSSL

In turn, ADX92639 had a negative logarithm of the IC50 (pIC50) of 4.76.
